Experimental data from patent US7491794B2, “Macrocyclic compounds as inhibitors of viral replication” (Intermune, Inc., priority 2003, dated 2009).

How the values were obtained:
NS3-NS4A protease = target: T1, NS3-NS4A protease (Hepatitis C virus genotype 1a, UniProt P27958); assay: NS3-NS4A protease assay (NS3 inhibition assay, RETS1 substrate), Section B; type: biochemical; settings: read-out: NS3-NS4A IC50
T1 construct: Recombinant E. coli or Baculovirus full-length NS3 was diluted to 3.33 μM with assay buffer; made in house; host or cells: E. coli or baculovirus (BV) system
Method in brief: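 Full-length NS3 (E. coli or baculovirus) precomplexed with excess NS4A-2 peptide, run at 2 nM (E. coli) or 3 nM (BV) NS3; compounds pre-incubated 10 min at room temperature before RETS1 substrate. Fluorescence (ex 335/em 495 nm) read kinetically 30 min; IC50 from four-parameter fit, converted to Ki via Ki=IC50/(1+[S]/Km).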

[1] = system: HCV sub-genomic replicon, GS4.3; assay: Quantitation by ELISA of NPTII in the HCV sub-genomic replicon, GS4.3, Section B; type: cell-based; settings: Hepatitis C virus; GS4.3 cells, 72 h incubation; read-out: Replicon EC50
Method in brief: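 GS4.3 cells (HuH-7 carrying HCV 1377/NS3-3′ replicon) were treated 72 h at 37 °C with inhibitors in 3-fold dilutions, 1% DMSO, no G418. Lysate NPTII was measured by ELISA (TMB, 450 nm). Signal as % of DMSO control; EC50 from 4-parameter fit.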

T1 sequence (P27958 1027-1657): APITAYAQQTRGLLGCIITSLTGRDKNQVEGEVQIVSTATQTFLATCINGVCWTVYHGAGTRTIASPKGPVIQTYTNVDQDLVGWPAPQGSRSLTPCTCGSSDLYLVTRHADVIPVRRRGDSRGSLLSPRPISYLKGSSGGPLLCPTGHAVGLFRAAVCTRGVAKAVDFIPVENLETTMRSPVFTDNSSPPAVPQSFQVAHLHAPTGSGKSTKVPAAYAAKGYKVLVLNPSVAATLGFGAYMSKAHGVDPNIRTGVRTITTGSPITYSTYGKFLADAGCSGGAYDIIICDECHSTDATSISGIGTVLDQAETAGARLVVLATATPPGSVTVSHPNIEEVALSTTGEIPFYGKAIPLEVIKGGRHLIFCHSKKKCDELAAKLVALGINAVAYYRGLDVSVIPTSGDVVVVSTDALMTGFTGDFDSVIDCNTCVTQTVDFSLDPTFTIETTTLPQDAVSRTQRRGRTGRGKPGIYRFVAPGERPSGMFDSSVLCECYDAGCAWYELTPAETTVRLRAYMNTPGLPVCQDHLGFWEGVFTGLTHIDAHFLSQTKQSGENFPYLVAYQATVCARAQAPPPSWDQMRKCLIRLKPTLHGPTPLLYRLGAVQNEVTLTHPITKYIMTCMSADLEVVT

SMILES	IC50 (NS3-NS4A protease) [nM]	EC50 [1] [nM]
CN(C)c1cccc2c1CCN(C(=O)O[C@@H]1C[C@H]3C(=O)N[C@]4(C(=O)O)C[C@H]4/C=C\CCCCC[C@H](NC(=O)OC(C)(C)C)C(=O)N3C1)C2 [AR00315997, (1S,4R,6S,14S,18R)-14-tert-Butoxycarbonylamino-18-(5-dimethylamino-3,4-dihydro-1H-isoquinoline-2-carbonyloxy)-2,15-dioxo-3,16-diaza-tricyclo[14.3.0.0^4,6]nonadec-7-ene-4-carboxylic acid]	< 1000	< 10000
CC(C)(C)OC(=O)N[C@H]1CCCCC/C=C\[C@@H]2C[C@@]2(C(=O)O)NC(=O)[C@@H]2C[C@@H](OC(=O)N3Cc4ccc(Cl)cc4C3)CN2C1=O [AR00315998, (1S,4R,6S,14S,18R)-14-tert-Butoxycarbonylamino-18-(5-chloro-1,3-dihydro-isoindole-2-carbonyloxy)-2,15-dioxo-3,16-diaza-tricyclo[14.3.0.0^4,6]nonadec-7-ene-4-carboxylic acid]	< 1000	< 10000
CC(C)(C)OC(=O)N[C@H]1CCCCC/C=C\[C@@H]2C[C@@]2(C(=O)O)NC(=O)[C@@H]2C[C@@H](OC(=O)N3Cc4cc(Cl)c(Cl)cc4C3)CN2C1=O [AR00315999, (1S,4R,6S,14S,18R)-14-tert-Butoxycarbonylamino-18-(5,6-dichloro-1,3-dihydro-isoindole-2-carbonyloxy)-2,15-dioxo-3,16-diaza-tricyclo[14.3.0.0^4,6]nonadec-7-ene-4-carboxylic acid]	< 1000	< 10000
CC(C)(C)NC(=O)N[C@H]1CCCCC/C=C\[C@@H]2C[C@@]2(C(=O)NS(=O)(=O)C2CC2)NC(=O)[C@@H]2C[C@@H](OC(=O)N3CCc4ccccc4C3)CN2C1=O [AR00320001, (1S,4R,6S,14S,18R)-3,4-Dihydro-1H-isoquinoline-2-carboxylic acid 14-(3-tert-butyl-ureido)-4-cyclopropanesulfonylaminocarbonyl-2,15-dioxo-3,16-diaza-tricyclo[14.3.0.0^4,6]nonadec-7-en-18-yl ester]	< 100	< 100
O=C(N[C@H]1CCCCC/C=C\[C@@H]2C[C@@]2(C(=O)O)NC(=O)[C@@H]2C[C@@H](OC(=O)N3CCc4ccccc4C3)CN2C1=O)OC1CCOCC1 [AR00320002, (1S,4R,6S,14S,18R)-18-(3,4-Dihydro-1H-isoquinoline-2-carbonyloxy)-2,15-dioxo-14-(tetrahydro-pyran-4-yloxycarbonylamino)-3,16-diaza-tricyclo[14.3.0.0^4,6]nonadec-7-ene-4-carboxylic acid]	< 1000	< 10000
O=C(N[C@H]1CCCCC/C=C\[C@@H]2C[C@@]2(C(=O)NS(=O)(=O)C2CC2)NC(=O)[C@@H]2C[C@@H](OC(=O)N3Cc4ccccc4C3)CN2C1=O)OCCF [AR00320073, (1S,4R,6S,14S,18R)-1,3-Dihydro-isoindole-2-carboxylic acid 4-cyclopropanesulfonylaminocarbonyl-14-(2-fluoro-ethoxycarbonylamino)-2,15-dioxo-3,16-diaza-tricyclo[14.3.0.0^4,6]nonadec-7-en-18-yl ester]	< 100	< 100
O=C(N[C@H]1CCCCC/C=C\[C@@H]2C[C@@]2(C(=O)O)NC(=O)[C@@H]2C[C@@H](OC(=O)N3Cc4ccccc4C3)CN2C1=O)O[C@@H]1CCOC1 [AR00320074, (1S,4R,6S,14S,18R)-18-(1,3-Dihydro-isoindole-2-carbonyloxy)-2,15-dioxo-14-(tetrahydro-furan-3R-yloxycarbonylamino)-3,16-diaza-tricyclo[14.3.0.0^4,6]nonadec-7-ene-4-carboxylic acid]	< 100	< 10000
O=C(N[C@H]1CCCCC/C=C\[C@@H]2C[C@@]2(C(=O)O)NC(=O)[C@@H]2C[C@@H](OC(=O)N3Cc4ccccc4C3)CN2C1=O)O[C@H]1CCOC1 [AR00320075, (1S,4R,6S,14S,18R)-18-(1,3-Dihydro-isoindole-2-carbonyloxy)-2,15-dioxo-14-(tetrahydro-furan-3S-yloxycarbonylamino)-3,16-diaza-tricyclo[14.3.0.0^4,6]nonadec-7-ene-4-carboxylic acid]	< 1000	< 10000
O=C(N[C@H]1CCCCC/C=C\[C@@H]2C[C@@]2(C(=O)O)NC(=O)[C@@H]2C[C@@H](OC(=O)N3Cc4ccccc4C3)CN2C1=O)OCCF [AR00320076, (1S,4R,6S,14S,18R)-18-(1,3-Dihydro-isoindole-2-carbonyloxy)-2,15-dioxo-14-(2-fluoro-ethoxycarbonylamino)-3,16-diaza-tricyclo[14.3.0.0^4,6]nonadec-7-ene-4-carboxylic acid]	< 1000	< 10000
O=C(N[C@H]1CCCCC/C=C\[C@@H]2C[C@@]2(C(=O)O)NC(=O)[C@@H]2C[C@@H](OC(=O)N3Cc4ccccc4C3)CN2C1=O)OC1CCOCC1 [AR00320077, (1S,4R,6S,14S,18R)-18-(1,3-Dihydro-isoindole-2-carbonyloxy)-2,15-dioxo-14-(tetrahydro-pyran-4-yloxycarbonylamino)-3,16-diaza-tricyclo[14.3.0.0^4,6]nonadec-7-ene-4-carboxylic acid]	< 1000	< 10000
CC(C)(C)NC(=O)N[C@H]1CCCCC/C=C\[C@@H]2C[C@@]2(C(=O)O)NC(=O)[C@@H]2C[C@@H](OC(=O)N3Cc4ccccc4C3)CN2C1=O [AR00320078, (1S,4R,6S,14S,18R)-14-(3-tert-Butyl-ureido)-18-(1,3-dihydro-isoindole-2-carbonyloxy)-2,15-dioxo-3,16-diaza-tricyclo[14.3.0.0^4,6]nonadec-7-ene-4-carboxylic acid]	< 100	< 10000
O=C(N[C@H]1CCCCC/C=C\[C@@H]2C[C@@]2(C(=O)NS(=O)(=O)C2CC2)NC(=O)[C@@H]2C[C@@H](OC(=O)N3Cc4ccccc4C3)CN2C1=O)O[C@@H]1CCOC1 [AR00320079, (1S,4R,6S,14S,18R)-1,3-Dihydro-isoindole-2-carboxylic acid 4-cyclopropanesulfonylaminocarbonyl-2,15-dioxo-14-(tetrahydro-furan-3-yloxycarbonylamino)-3,16-diaza-tricyclo[14.3.0.0^4,6]nonadec-7-en-18-yl ester]	< 100	< 100
O=C(N[C@H]1CCCCC/C=C\[C@@H]2C[C@@]2(C(=O)NS(=O)(=O)C2CC2)NC(=O)[C@@H]2C[C@@H](OC(=O)N3Cc4ccccc4C3)CN2C1=O)O[C@H]1CCOC1 [AR00320080, (1S,4R,6S,14S,18R)-1,3-Dihydro-isoindole-2-carboxylic acid 4-cyclopropanesulfonylaminocarbonyl-2,15-dioxo-14-(tetrahydro-furan-3S-yloxycarbonylamino)-3,16-diaza-tricyclo[14.3.0.0^4,6]nonadec-7-en-18-yl ester]	< 100	< 1000
O=C(N[C@H]1CCCCC/C=C\[C@@H]2C[C@@]2(C(=O)NS(=O)(=O)C2CC2)NC(=O)[C@@H]2C[C@@H](OC(=O)N3Cc4ccccc4C3)CN2C1=O)OC1CCOCC1 [AR00320081, (1S,4R,6S,14S,18R)-1,3-Dihydro-isoindole-2-carboxylic acid 4-cyclopropanesulfonylaminocarbonyl-2,15-dioxo-14-(tetrahydro-pyran-4-yloxycarbonylamino)-3,16-diaza-tricyclo[14.3.0.0^4,6]nonadec-7-en-18-yl ester]	< 100	< 100
O=C(N[C@H]1CCCCC/C=C\[C@@H]2C[C@@]2(C(=O)NS(=O)(=O)C2CC2)NC(=O)[C@@H]2C[C@@H](OC(=O)N3CCc4ccccc4C3)CN2C1=O)OC1CCOCC1 [AR00320082, (1S,4R,6S,14S,18R)-3,4-Dihydro-1H-isoquinoline-2-carboxylic acid 4-cyclopropanesulfonylaminocarbonyl-2,15-dioxo-14-(tetrahydro-pyran-4-yloxycarbonylamino)-3,16-diaza-tricyclo[14.3.0.0^4,6]nonadec-7-en-18-yl ester]	< 100	< 100
CC(C)(C)OC(=O)N[C@H]1CCCCC/C=C\[C@@H]2C[C@@]2(C(=O)NS(=O)(=O)C2CC2)NC(=O)[C@@H]2C[C@@H](OC(=O)N3Cc4ccc(Cl)cc4C3)CN2C1=O [AR00320119, (1S,4R,6S,14S,18R)-5-Chloro-1,3-dihydro-isoindole-2-carboxylic acid 14-tert-butoxycarbonylamino-4-cyclopropanesulfonylaminocarbonyl-2,15-dioxo-3,16-diaza-tricyclo[14.3.0.0^4,6]nonadec-7-en-18-yl ester]	< 100	< 100
CN(C)c1cccc2c1CCN(C(=O)O[C@@H]1C[C@H]3C(=O)N[C@]4(C(=O)NS(=O)(=O)C5CC5)C[C@H]4/C=C\CCCCC[C@H](NC(=O)OC(C)(C)C)C(=O)N3C1)C2 [AR00320120, (1S,4R,6S,14S,18R)-5-Dimethylamino-3,4-dihydro-1H-isoquinoline-2-carboxylic acid 14-tert-butoxycarbonylamino-4-cyclopropanesulfonylaminocarbonyl-2,15-dioxo-3,16-diaza-tricyclo[14.3.0.0^4,6]nonadec-7-en-18-yl ester]	< 100	< 100
CC(C)(C)OC(=O)N[C@H]1CCCCC/C=C\[C@@H]2C[C@@]2(C(=O)NS(=O)(=O)C2CC2)NC(=O)[C@@H]2C[C@@H](OC(=O)N3Cc4cc(Cl)c(Cl)cc4C3)CN2C1=O [AR00320121, (1S,4R,6S,14S,18R)-5,6-Dichloro-1,3-dihydro-isoindole-2-carboxylic acid 14-tert-butoxycarbonylamino-4-cyclopropanesulfonylaminocarbonyl-2,15-dioxo-3,16-diaza-tricyclo[14.3.0.0^4,6]nonadec-7-en-18-yl ester]	< 100	< 100
